Measurements taken from patent US7598206B2, “Fungicidal mixtures” (BASF Aktiengesellschaft, priority 2004, dated 2009).

How the values were obtained:
Assay type in all cases: in vivo
[1] = system: Botrytis cinerea; assay: Use example 1: activity against gray mold on bell pepper leaves, 1 day protective application; details: efficacy in % of untreated control (Abbot), sprayed 1 day before inoculation, rated after 5 days, read-out: Observed activity (%)
Experimental: (§1) The active compounds were prepared jointly or separately as a stock solution with 25 mg of active compound which was made up to 10 ml using a mixture of acetone and/or DMSO and the emulsifier Uniperol® EL (wetting agent having emulsifying and dispersing action based on ethoxylated alkylphenols) in a volume ratio of solvent/emulsifier of 99 to 1. The mixture was then made up with water to 100 ml. This stock solution was diluted with the solvent/emulsifier/water mixture described to the concentration of active compounds stated below.
(§2) The active compounds epoxiconazole and pyraclostrobin were used as commercial formulations and diluted with water to the stated concentration.
(§3) The visually determined percentages of infected leaf areas were converted into efficacies in % of the untreated control:
(§4) The efficacy (E) is calculated as follows using Abbot's formula: E=(1−α/β)·100 • α corresponds to the fungicidal infection of the treated plants in % and • β corresponds to the fungicidal infection of the untreated (control) plants in % […]
(§5) The expected efficacies of mixtures of active compounds were determined using Colby's formula (Colby, S. R. “Calculating synergistic and antagonistic responses of herbicide combinations”, Weeds, 15, 1967, p. 20-22) and compared with the observed efficacies. […]

[2] = system: Alternaria solani; assay: Use example 3: 5 day protective activity against early blight of tomato; details: sprayed 5 days before infection, rated after 5 days, read-out: Observed activity (%)
Experimental: as §1, §2, §3, §4, §5

[3] = system: Botrytis cinerea; assay: Use example 2: activity against gray mold on bell pepper leaves, 5 day protective application; details: sprayed 5 days before inoculation, read-out: Observed activity (%)
Experimental: as §1, §2, §3
The efficacy (E) is calculated as follows using Abbot's formula: E=(1−α/β)·100 • α corresponds to the fungicidal infection of the treated plants in % and • β corresponds to the fungicidal infection of the untreated (control) plants in %
An efficacy of 0 means that the infection level of the treated plants corresponds to that of the untreated control plants; an efficacy of 100 means that the treated plants were not infected.
The expected efficacies of mixtures of active compounds were determined using Colby's formula (Colby, S. R. “Calculating synergistic and antagonistic responses of herbicide combinations”, Weeds, 15, 1967, p. 20-22) and compared with the observed efficacies.
Colby's formula: E=x+y−x·y/100 • E expected efficacy, expressed in % of the untreated control, when using the mixture of the active compounds A and B at the concentrations a and b • x efficacy, expressed in % of the untreated control, when using the active compound A at the concentration a • y efficacy, expressed in % of the untreated control, when using the active compound B at the concentration b
Use example 2-activity against gray mold on bell pepper leaves caused by Botrytis cinerea, 5 day protective application
Bell pepper seedlings of the cultivar “Neusiedler Ideal Elite” were, after 2-3 leaves were well developed, sprayed to runoff point with an aqueous suspension having the active compound concentration given below. After 5 days, the treated plants were inoculated with a spore suspension of Botrytis cinerea which comprised 1.7×10^6 spores/ml in a 2% strength aqueous biomalt solution. The test plants were then placed in a dark climatized chamber at 22 to 24° C. and high atmospheric humidity. After 5 days, the extent of the fungal infection on the leaves could be determined visually in %.

## CN1OC(c2ccc(Cl)cc2)CC1(C)c1cccnc1 (centres unmarked) [SYP-Z048 (I)]
[1]
  inhibition at 4 ppm: 70%
[2]; 1 ppm
  inhibition at 1 ppm: 0%
[3]; 16 ppm, rated after 5 days
  inhibition at 16 ppm: 0%

## Cc1ccc(N(SC(F)(Cl)Cl)S(=O)(=O)N(C)C)cc1 [tolylfluanid (F29), N-dichlorofluoromethylthio-N′,N′-dimethyl-N-p-tolylsulfamide]
[3]; 250 ppm
  inhibition at 250 ppm: 20%

## O=C(Nc1ccccc1-c1ccc(Cl)cc1)c1cccnc1Cl [boscalid (C3), 2-chloro-N-(4′-chlorobiphenyl-2-yl)nicotinamide]
[2]; 4 ppm
  inhibition at 4 ppm: 56%
[3]; 4 ppm
  inhibition at 4 ppm: 0%

## Fc1ccc([C@]2(Cn3cncn3)O[C@H]2c2ccccc2Cl)cc1 (racemic) [epoxiconazole (A7), (2RS,3SR)-1-[3-(2-chlorophenyl)-2,3-epoxy-2-(4-fluorophenyl)propyl]-1H-1,2,4-triazole]
[1]
  inhibition at 4 ppm: 0%

## COC(=O)N(OC)c1ccccc1COc1ccn(-c2ccc(Cl)cc2)n1 [pyraclostrobin (B9), methyl N-{2-[1-(4-chlorophenyl)-1H-pyrazol-3-yloxymethyl]phenyl}(N-methoxy)carbamate]
[3]; 63 ppm, commercial formulation
  inhibition at 63 ppm: 20%
